Tested on: HIV-1
Assay: Luciferase Replication assay
Format: cell-based
Conditions: Human immunodeficiency virus 1, U87/CD4/CCR5, 72 h
Description: Luciferase Replication Assay:
Plasmids encoding the full length genome of HIV-1 pNL-4-Luc with the gp 120 V-3 loop replaced by the Bgl II fragment of HIV-1 ADA, YU-2 or HxB (ADA-Luc-FL, YU-2-Luc-FL and HxB-Luc-FL) were obtained from Dr. Susan Pontow (Washington University, St. Louis Mo.). Replication-competent luciferase reporter virus stocks were generated by transfection of plasmids into 293T cells using Superfect (Qiagen) or Mirus transfection reagents. Viral stocks were collected 48 hours following transfection and titered for luciferase production on U-87-CCR5 or CXCR4 cells. U87-CD4-CCR5 cells ([…]) were plated in 96-well cell culture plates and incubated overnight. Media was removed and replaced with 50 μl of fresh culture media (DMEM, 10% FCS) and 50 μl of compound diluted in culture medium. Cells were incubated with compound at 37° C. for 1 hour. The resultant supernatant was removed and replaced with 20 μl of media containing compound and infected with an equal volume of diluted or undiluted virus stock at 37° C. for 3-4 hours. The cells were washed once with DMEM, and 200 μl of media containing compound was added. The cultures were incubated for 3 days, the cells lysed in luciferase lysis buffer (Promega, Madison, Wis.) and transferred to Immulon plates (Dynex Technologies, Chantilly Va.). An equal volume of luciferase substrate (Promega, Madison Wis.) was added to lysates and the plates read immediately in a Wallac Luminometer. Fifty and ninety percent inhibitory concentrations were determined using GraphPad PRISM software.

| Structure (SMILES) | IC50 |
| --- | --- |
| Cc1ncnc(C)c1C(=O)N1CCC(C)(N2CCC(N(Cc3ccccc3)c3ccc(CN4CC[C@H](NS(=O)(=O)C5CC5)C4=O)cc3)CC2)CC1 | 0.14 nM |
| Cc1ncnc(C)c1C(=O)N1CCC(C)(N2CCC(N(Cc3ccccc3)c3ccc(CC(=O)N4CCCC4)cc3)CC2)CC1 | 0.13 nM |
| Cc1ncnc(C)c1C(=O)N1CCC(C)(N2CCC(N(Cc3ccccc3)c3ccc(C(C)(C)C(=O)N4CCOCC4)cc3)CC2)CC1 | 0.14 nM |
| Cc1ncnc(C)c1C(=O)N1CCC(C)(N2CCC(N(Cc3ccccc3)c3ccc(C(C)(C)C(=O)N4CCCCC4)cc3)CC2)CC1 | 0.18 nM |
| CCNC(=O)Nc1cc(C)c(C(=O)N2CCC(C)(N3CCC(N(Cc4ccccc4)c4ccc(CC(=O)N5CCOCC5)cc4)CC3)CC2)c(C)c1 | 0.19 nM |
| Cc1cc(O)cc(C)c1C(=O)N1CCC(C)(N2CCC(N(Cc3ccccc3)c3ccc(C(C)(C)C(=O)N4CCOCC4)cc3)CC2)CC1 | < 0.1 nM |
| Cc1cc(NS(C)(=O)=O)cc(C)c1C(=O)N1CCC(C)(N2CCC(N(Cc3ccccc3)c3ccc(C(C)(C)C(=O)N4CCOCC4)cc3)CC2)CC1 | 0.16 nM |
| Cc1cc(N)cc(C)c1C(=O)N1CCC(C)(N2CCC(N(Cc3ccccc3)c3ccc(C(C)(C)C(=O)N4CCOCC4)cc3)CC2)CC1 | 0.13 nM |
| Cc1ncnc(C)c1C(=O)N1CCC(C)(N2CCC(N(Cc3ccccc3)c3ccc(CC#N)cc3)CC2)CC1 | 0.14 nM |
| Cc1ncnc(C)c1C(=O)N1CCC(C)(N2CCC(N(Cc3ccccc3)c3ccc(CNC(=O)[C@H](O)c4ccccc4)cc3)CC2)CC1 | 0.19 nM |
| CCN(CC)C(=O)[C@@H](O)c1ccc(N(Cc2ccccc2)C2CCN(C3(C)CCN(C(=O)c4c(C)ncnc4C)CC3)CC2)cc1 | 0.16 nM |
| Cc1ncnc(C)c1C(=O)N1CCC(C)(N2CCC(N(Cc3ccccc3)c3ccc(S(=O)(=O)CCO)cc3)CC2)CC1 | 0.17 nM |
| Cc1ncnc(C)c1C(=O)N1CCC(C)(N2CCC(N(Cc3ccccc3)c3ccn(C)c(=O)c3)CC2)CC1 | 0.15 nM |
